Here are results for 9 compounds from patent US5962640A, “Methods for preparing novel dipeptide compounds or pharmacuetically acceptable salts thereof” (Japan Energy Corporation, priority 1995, dated 1999).

As a reminder, the EC50 is the midpoint of the concentration-response curve. A lower EC50 goes with higher potency in that assay. A word on the MRT: it is a mean duration of stay, worked out from the concentration-time curve.

Values after ≈ are worked out from the molar mass of the structure shown.

One data set deals with MT-4 cell line. Briefly: Cytotoxicity to non-infected MT-4 cell line, MTT method. The class given is cell-based. Particulars: non-infected MT-4 cells, 5 day culture. How it is done: According to a test method which was already reported in publications (H.Nakashima et al., Antimicrob. Agents Chemother.36, 1249-1255 (1992), etc.,), anti-HIV activity was evaluated, by using MT-4 cell line and HTLV-IIIB virus, MT-4 cells (2.5×10^4 well, MOI:001) infected with said HTLV-IIIB virus just before the addition were into 96-well microtiter plate wherein each well contained various concentration of tested compound. At the same time, in order to investigate cytotoxicity of tested compounds to MT-4 cell line, non-infected MT-4 cell line was cultured in the presence of various kinds of tested compound. After 5 day culture at 37° C. in a CO2 incubator, the number of vial cells was counted by MTT method. […]
In general terms: Tetrazolium assays rely on reduction of a dye to a coloured formazan, in cell work by metabolically active cells.

Data set [1] in a line: Pharmacokinetics in rats, intravenous or intraduodenal administration, plasma concentration. Type of data set: in vivo. On the procedure: Metabolic characteristics of the dipeptide compounds of the present invention was evaluated using rats. Tested compounds dissolved in vehicle was administered intraduodenally or intravenously. After administration, blood was taken and the concentration of residual tested compound in plasma was analyzed. The dosage of the tested compound was described in table 3.

The target of another data set is T1, Recombinant HIV protease (Human immunodeficiency virus type 1 group M subtype B, UniProt P04585).
T1 construct: Recombinant HIV protease
Nature of the data set: HIV protease inhibitory activity (cleavage of synthetic hepta-peptide, HPLC). Type of data set: biochemical. Particulars: for inhibition at 0.05 µM / HIV protease inhibitory activity (%): 37° C., 60 min; for inhibition at 5 µM: read-out: HIV protease inhibitory activity (%). On the procedure:
Recombinant HIV protease (Biochemistry, 250 (9), 264 (1990)) and synthetic hepta-peptide (H-Ser-Gln-Asn-Tyr-Pro-Ile-Val-OH/trifluoroacetic acid salt) were used for assay of protease activity. Peptide fragment H-Pro-Ile-Val-OH formed by cleavage between -Tyr . . . Pro of said substrate after a reaction in the presence of various concentration of tested compound at 37° C. for 60 min. was determined by reversed phase HPLC and the inhibitory rate was calculated (referred to Japanese laid-open unexamined patent, No. 170722/1993).
The concentration of tested compound represents the final concentration thereof of the reaction mixture.

In a further data set the test system is HTLV-IIIB virus. Nature of the data set: Anti-HIV activity: protection of HTLV-IIIB infected MT-4 cells, MTT method. The class given is cell-based. The settings on record: MT-4 cells infected with HTLV-IIIB, 5 day culture; for EC50: Human immunodeficiency virus 1, MT4, 120 h. On the procedure:
The anti-HIV activity of the dipeptide compound of the present invention was evaluated as described below. That is, the inhibitory action of the compound on formation of HIV virus particles which infects T lymphocyte was evaluated by potency to prevent death of T lymphocyte accompanied by said virus infection.
According to a test method which was already reported in publications (H.Nakashima et al., Antimicrob. Agents Chemother.36, 1249-1255 (1992), etc.,), anti-HIV activity was evaluated, by using MT-4 cell line and HTLV-IIIB virus, MT-4 cells (2.5×10^4 well, MOI:001) infected with said HTLV-IIIB virus just before the addition were into 96-well microtiter plate wherein each well contained various concentration of tested compound. At the same time, in order to investigate cytotoxicity of tested compounds to MT-4 cell line, non-infected MT-4 cell line was cultured in the presence of various kinds of tested compound. After 5 day culture at 37° C. in a CO2 incubator, the number of vial cells was counted by MTT method.
Virus whose infectious value was 3.8×10^4 TCID 50/ml was used.

For the compound `Cc1ccccc1CNC(=O)[C@@H]1CSCN1C(=O)[C@@H](O)[C@H](Cc1ccccc1)NC(=O)c1cccc(O)c1C` [Compound of example 34, (R)-N-(2-methylbenzyl)-3-[(2S,3S)-3-(3-hydroxy-2-methylbenzoyl)amino-2-hydroxy-4-phenylbutanoyl]-1,3-thiazolidine-4-carboxamide], the “Cytotoxicity CC50” value in the data set on MT-4 cell line stood at 24.5 µg/mL. Further, the AUC in data set [1] (i.d., 10.0 mg/kg) turned out to be 40 µg/mL/min; in data set [1] (i.v., 10.0 mg/kg) it was 124 µg/mL/min. Further, the inhibition at 0.05 µM on Recombinant HIV protease (concentration 50 nM (final)) was 69.8%. The inhibition at 5 µM on Recombinant HIV protease amounted to 96.7%. The compound further displayed an EC50 in the data set with HTLV-IIIB virus of 5.35 µg/mL (≈ 9.77 µM).

For `CCc1c(O)cccc1C(=O)N[C@@H](Cc1ccccc1)[C@H](O)C(=O)N1CSC[C@H]1C(=O)NC(C)(C)C` [Compound of example 31, (R)-N-tert-butyl-3-[(2S,3S)-2-hydroxy-3-(2-ethyl-3-hydroxybenzoyl)amino-4-phenylbutanoyl]-1,3-thiazolidine-4-carboxamide], the “Cytotoxicity CC50” value in the data set with MT-4 cell line stood at 168 µg/mL. Further, the AUC in data set [1] (i.d., 10.0 mg/kg) was found to be 99 µg/mL/min. Moreover, in data set [1] (i.v., 10.0 mg/kg), the AUC was 276 µg/mL/min and the MRT stood at 1.6 h. Also, the inhibition at 0.05 µM on Recombinant HIV protease (concentration 50 nM (final)) worked out at 45.6%. For the same compound, the inhibition at 5 µM at Recombinant HIV protease stood at 97.5%. The EC50 with HTLV-IIIB virus was determined as 1.46 µg/mL (≈ 2.84 µM).

Turning to `Cc1c(O)cccc1C(=O)N[C@@H](Cc1ccccc1)[C@H](O)C(=O)N1CSC[C@H]1C(=O)NC(C)(C)C` [Compound of example 21, (R)-N-tert-butyl-3-[(2S,3S)-2-hydroxy-3-[3-hydroxy-2-methylbenzoy 1]amino-4-phenylbutanoyl]-1,3-thiazolidine-4-carboxamide], the “Cytotoxicity CC50” value in the data set with MT-4 cell line was determined as 184 µg/mL. The AUC in data set [1] (i.d., 20.0 mg/kg) was 101 µg/mL/min; in data set [1] (i.v., 10.0 mg/kg) it was 111 µg/mL/min. The “Anti-HIV activity EC50” value with HTLV-IIIB virus was 0.70 µg/mL.

In the case of `CSC[C@H](NC(=O)COc1cccc2cnccc12)C(=O)N[C@@H](Cc1ccccc1)[C@H](O)C(=O)N1CSC[C@H]1C(=O)NC(C)(C)C` [KNI-272, (R)-3-[(2S,3S)-3-(N-(isoquinoline-5-yloxy)acetyl-methylthio-L-alanyl)amino-2-hydroxy-4-phenylbutanoyl]1,3-thiazolidine-4-N'-t-butylcarboxamide, reference compound], in the data set with MT-4 cell line, the “Cytotoxicity CC50” value was found to be 115 µg/mL. The AUC stood at 98 µg/mL/min in data set [1] (i.d., 10.0 mg/kg) and 224 µg/mL/min in data set [1] (i.v., 10.0 mg/kg). For the same compound, the “Anti-HIV activity EC50” value in the data set on HTLV-IIIB virus is 0.21 µg/mL.

As for `CCc1c(O)cccc1C(=O)N[C@@H](Cc1ccccc1)[C@H](O)C(=O)N1CSC(C)(C)[C@H]1C(=O)NCc1ccccc1C` [Compound of example 38, (R)-N-(2-methylbenzyl)-3-[(2S,3S)-3-(2-ethyl-3-hydroxybenzoyl)amino-2-hydroxy-4-phenylbutanoyl]-5,5-dimethyl-1,3-thiazolidine-4-carboxamide], the “Cytotoxicity CC50” value with MT-4 cell line was found to be 19.5 µg/mL. On Recombinant HIV protease (concentration 50 nM (final)), the inhibition at 0.05 µM amounted to 97.3%. At Recombinant HIV protease, the inhibition at 5 µM is > 99%. Also, the midpoint of the response with HTLV-IIIB virus, the EC50, lay at 0.18 µg/mL (≈ 0.305 µM).

In the case of `CCc1c(O)cccc1C(=O)N[C@@H](Cc1ccccc1)[C@H](O)C(=O)N1CSC(C)(C)[C@H]1C(=O)NC(C)(C)C` [Compound of example 36, (R)-N-tert-butyl-3-[(2S,3S)-3-(2-ethyl-3-hydroxybenzoyl)amino-2-hydroxy-4-phenylbutanoyl]-5,5-dimethyl-1,3-thiazolidine-4-carboxamide], the “Cytotoxicity CC50” value with MT-4 cell line was 103 µg/mL. In addition, the AUC was found to be 64 µg/mL/min in data set [1] (i.d., 10.0 mg/kg) and 174 µg/mL/min in data set [1] (i.v., 10.0 mg/kg). Besides, the inhibition at 0.05 µM on Recombinant HIV protease (concentration 50 nM (final)) was determined as 83.5%. At Recombinant HIV protease, the inhibition at 5 µM was > 99%. The EC50 in the data set with HTLV-IIIB virus is 0.54 µg/mL (≈ 0.997 µM).

Turning to `Cc1c(O)cccc1C(=O)N[C@@H](Cc1ccccc1)[C@H](O)C(=O)N1CS(=O)(=O)C[C@H]1C(=O)NC(C)(C)C` [Compound of example 28, (R)-N-tert-butyl-3-[(2S,3S)-2-hydroxy-3-(2-methyl-3-hydroxybenzoyl)amino-4-phenylbutanoyl]-1,3-thiazolidine-1,1-dioxide-4-carboxamide], in the data set with MT-4 cell line, the “Cytotoxicity CC50” value is 146 µg/mL. The “HIV protease inhibitory activity (%)” value was 23.8% at Recombinant HIV protease (concentration 50 nM (final)) and 96.1% on Recombinant HIV protease (concentration 5 μM (final)). Further, in the data set with HTLV-IIIB virus, the “Anti-HIV activity EC50” value came to 1.80 µg/mL.

On to `Cc1c(O)cccc1C(=O)N[C@@H](Cc1ccccc1)[C@H](O)C(=O)N1CO[C@H](C)[C@H]1C(=O)NC(C)(C)C` [Compound of example 30, (4S,5R)-N-tert-butyl-3-[(2S,3S)-2-hydroxy-3-(2-methyl-3-hydroxybenzoyl)amino-4-phenylbutanoyl]-5-methyl-1,3-oxazolidine-4-carboxamide], for which, in the data set with MT-4 cell line, the “Cytotoxicity CC50” value is 191 µg/mL. For the same compound, the inhibition at 0.05 µM at Recombinant HIV protease (concentration 50 nM (final)) worked out at 21.5%. Moreover, the inhibition at 5 µM at Recombinant HIV protease turned out to be 96.9%. Further, in the data set with HTLV-IIIB virus, the response was half-maximal at 1.4 µg/mL (≈ 2.81 µM) (EC50).

As to `Cc1c(O)cccc1C(=O)N[C@@H](Cc1ccccc1)[C@H](O)C(=O)N1CSC(C)(C)[C@H]1C(=O)NC(C)(C)C` [Compound of example 22, (R)-N-tert-butyl-3-[(2S,3S)-2-hydroxy-3-[3-hydroxy-2-methylbenzoy 1]amino-4-phenylbutanoyl]-5,5-dimethyl-1,3-thiazolidine-4-carboxamide], the “Cytotoxicity CC50” value with MT-4 cell line is 156 µg/mL. For the same compound, the AUC amounted to 106 µg/mL/min in data set [1] (i.d., 20.0 mg/kg) and 111 µg/mL/min in data set [1] (i.v., 10.0 mg/kg). The “HIV protease inhibitory activity (%)” value amounted to 87.6% at Recombinant HIV protease (concentration 50 nM (final)) and 99.0% at Recombinant HIV protease (concentration 5 μM (final)). For the same compound, in the data set on HTLV-IIIB virus, the “Anti-HIV activity EC50” value was 0.15 µg/mL.
